“Also recorded” adds a separate entry of the source.
Experiments:
[1] = test system: hEPO secretion from HEK293 cells; test: In vitro hEPO assay (ELISA), AAV vector plasmids in HEK293 cells; type: cell-based, human
Protocol: For the hEPO ELISA assay in FIG. 9b, HEK293 cells were trypsinized and diluted to 2.0×10^5 cells ml^−1 and 100 μl per well were seeded onto a 96-well collagen plate. Cells in each well were transfected with 100 ng of the pAAV-CMV-hEPO-p3-d pAAV-CMV-hEPO-control, pAAV-MCS-based plasmids encoding human EPO with or without CPP-a8c-AC17-4 riboswitch using 0.3 μl of TransIT-293 Transfection Reagent according to the manufacturer's instructions. The medium in each well was replaced with fresh medium with (up to 10 μM) or without ASP7967 5 h after transfection. At 24 h after transfection, the medium in each well was collected and stored at −20° C. To measure hEPO concentrations, the medium was diluted 50-fold by PBS and further diluted 50-fold by the specimen diluent buffer included in the ELISA kit. The diluted samples were measured using Human Erythropoietin/EPO Quantikine ELISA Kit (R&D systems, Inc.) and Infinite M200 PRO microplate reader (TECAN).
Then, a8c-AC17-4-CPP was inserted into the 3′ UTR region of hEPO gene expressed from the CMV promoter in a plasmid containing AAV2 inverted terminal repeats (ITR) (pAAV-CMV-hEPO-a8c-AC17-4-CPP) (FIG. 9a). The plasmid pAAV-CMV-hEPO-a8c-AC17-4-CPP was transfected into HEK293 cells in the absence or presence (0.1~10 μM) of ASP7967. Two days after transfection, hEPO concentrations in the culture medium were measured by ELISA. […]

[2] = test system: HEK293 cells; test: MTT (cell proliferation) assay; type: cell-based; details: up to 10 μM, 18 h
Protocol: MTT assay was performed using MTT Cell Count Kit (Nacalai Tesque). HEK293 cells were trypsinized, diluted to 2.4×10^5 cells ml^−1 and 100 μl per well were seeded onto a 96-well plate. The cells were cultured for 24 h at 37° C. under 5% CO2. The medium was replaced with fresh medium (DMEM-FBS with 0.1% (v/v) DMSO) with 0, 2, 5, or 10 μM of ASP2905 or ASP7967. The cells were cultured for additional 18 h at 37° C. under 5% CO2. Subsequently, 10 μl of MTT solution was added to each well, and the cells were incubated for 3 h at 37° C. under 5% CO2. Next, 100 μl of the Solubilization Solution was added to each well. To dissolve the precipitated formazan, the plate was incubated for 2 h at 37° C. Absorbance at 570 nm (reference wavelength: 700 nm) was measured by Infinite M1000 PRO microplate reader (Tecan). The reported values are averages of four replicate wells. The assay was repeated three times to ensure reproducibility.

[3] = in vivo; cited from earlier work

| Compound | hEPO level in medium relative to control plasmid ([1]; 10 μM ASP7967, pAAV-CMV-hEPO-a8c-AC17-4-CPP) [%] | fold induction at 10 µM ([1]; Homo sapiens, HEK293, 24 h, read-out: induction of hEPO) | effect on cell proliferation / cellular toxicity [2] | effect on cell proliferation / cellular toxicity ([2]; listed as ASP2095) | antipsychotic activities [3] |
| --- | --- | --- | --- | --- | --- |
| Fc1ccc(Nc2nc(NCc3ncccn3)nc(Nc3ccc(F)cc3)n2)cc1 [ASP7967] | 29 | 10 | not significantly affected; also recorded: No cellular toxicity up to 10 μM was observed; also recorded: not cytotoxic | – | – |
| Fc1ccc(Nc2nc(NCc3ncccn3)nc(Nc3ccccc3)n2)cc1 [ASP2905, reference compound] | – | – | not significantly affected | No cellular toxicity up to 10 μM was observed; also recorded: not cytotoxic | has antipsychotic activities |
